Laboratory results as given in article PMC2528936, “Snake Cathelicidin from Bungarus fasciatus Is a Potent Peptide Antibiotics” (PLoS ONE, 2008).
Where two headings read alike, the source gives them in different places. Where no end group is shown, it is not given here.

Legend:
S. aureus ATCC25923 = experiment: MIC determination; assay type: cell-based, Staphylococcus aureus; conditions: liquid LB broth, no visible growth; mean of three independent experiments in duplicates; ND = no detectable activity
[1] = Serum stability, residual antimicrobial activity; assay type: in vitro ADME; conditions: 100 µg/ml peptide, 90% fresh normal human serum, 37°C, 0-24 hours; residual activity against E. coli 08A866 by radial diffusion assay
Procedure: For cathelicidin-BF, antimicrobial activities against E. coli 08A866 could not be detected after 3 h-incubation, while cathelicidin-BF15 could keep its antimicrobial activity up to 10 h in 90% fresh normal human serum.

[2] = system: Salmonella typhi (IS, DR); experiment: MIC determination; assay type: cell-based; conditions: clinically isolated strain, drug resistance for ampicillin and benzylpenicillin; liquid LB broth; mean of three independent experiments in duplicates; ND = no detectable activity
[3] = system: E. coli 08032813 (IS, DR); conditions: clinically isolated strain, drug resistance for ampicillin and benzylpenicillin; liquid LB broth; mean of three independent experiments in duplicates; ND = no detectable activity
Procedure: (§1) Antimicrobial activities of cathelicidin-BF and cathelicidin-BF15 ([…]) were tested according to our previous methods [39]–[42]. […] The details were provided in the Materials and Methods S1.
(§2) Standard and clinically isolated microorganism strains were used for antimicrobial assays. Bacteria were first grown in LB (Luria-Bertani) broth to an OD600 nm of 0.8. A 10 µl aliquot of the bacteria was then taken and added to 8 ml of fresh LB broth with 0.7% agar and poured over a 90 mm Petri dish containing 25 ml of 1.5% agar in LB broth. After the top agar hardened, a 20 µl aliquot of the test sample filtered on a 0.22 µm Millipore filter was dropped onto the surface of the top agar and completely dried before being incubated overnight at 37 °C. If the sample examined had antimicrobial activity, a clear zone would be formed on the surface of the top agar representing inhibition of bacterial growth. Minimal inhibitory concentration (MIC) was determined in liquid LB medium by incubating the bacteria in LB broth with variable amounts of the sample tested. The MIC at which no visible growth occurred was recorded. In the assays of anti-fungi activity, for strains of Aspergillus terreus, A. niculans, and Chaetomium globosum, the fungal spore concentration was first counted under a microscope. The fungi with an initial concentration of 10^5 spores/ml were cultured with variable amounts of the sample tested in yeast extract-peptone-dextrose broth.

[4] = system: Sacharibacillus kuerlensis; conditions: liquid LB broth, no visible growth; mean of three independent experiments in duplicates; ND = no detectable activity
Procedure: as §1, §2

[5] = system: E. coli 08040722 (IS, DR); conditions: clinically isolated strain, drug resistance for ampicillin and benzylpenicillin; liquid LB broth; mean of three independent experiments in duplicates; ND = no detectable activity
Procedure: as §1, §2

[6] = system: Sphingobacterium siyangense; conditions: liquid LB broth, no visible growth; mean of three independent experiments in duplicates; ND = no detectable activity
Procedure: as §1, §2

Pseudomonas luteola = conditions: liquid LB broth, no visible growth; mean of three independent experiments in duplicates; ND = no detectable activity
Procedure: as §1, §2

E. coli = conditions: for most of E. coli (standard and clinically isolated strains)
Procedure: as §1, §2

[7] = system: K. pneumoniae 08040724 (IS, DR); conditions: clinically isolated strain, drug resistance for ampicillin and benzylpenicillin; liquid LB broth; mean of three independent experiments in duplicates; ND = no detectable activity
Procedure: as §1, §2

[8] = system: P.aeruginosa 08031205(IS, DR); conditions: clinically isolated strain, drug resistance for ampicillin and benzylpenicillin; liquid LB broth; mean of three independent experiments in duplicates; ND = no detectable activity
Procedure: as §1, §2

[9] = system: E. coli 08031017 (IS, DR); conditions: clinically isolated strain, drug resistance for ampicillin and benzylpenicillin; liquid LB broth; mean of three independent experiments in duplicates; ND = no detectable activity
Procedure: as §1, §2

[10] = system: K. pneumoniae 08031012 (IS, DR); conditions: clinically isolated strain, drug resistance for ampicillin and benzylpenicillin; liquid LB broth; mean of three independent experiments in duplicates; ND = no detectable activity
Procedure: as §1, §2

[11] = system: Klebsiella pneumoniae (IS, DR); conditions: clinically isolated strain, drug resistance for ampicillin and benzylpenicillin; liquid LB broth; mean of three independent experiments in duplicates; ND = no detectable activity
Procedure: as §1, §2

P. aeruginosa (IS, DR) = conditions: clinically isolated strain, drug resistance for ampicillin and benzylpenicillin; liquid LB broth; mean of three independent experiments in duplicates; ND = no detectable activity
Procedure: as §1, §2

Serratia marcescens SA = conditions: liquid LB broth, no visible growth; mean of three independent experiments in duplicates; ND = no detectable activity
Procedure: as §1, §2

[12] = system: S. aureus 08032706 (IS, DR); conditions: clinically isolated strain, drug resistance for ampicillin and benzylpenicillin; liquid LB broth; mean of three independent experiments in duplicates; ND = no detectable activity
Procedure: as §1, §2

[13] = system: K. pneumoniae 08040202 (IS, DR); conditions: clinically isolated strain, drug resistance for ampicillin and benzylpenicillin; liquid LB broth; mean of three independent experiments in duplicates; ND = no detectable activity
Procedure: as §1, §2

[14] = system: S. aureus 08A875 (IS, DR); conditions: clinically isolated strain, drug resistance for ampicillin and benzylpenicillin; liquid LB broth; mean of three independent experiments in duplicates; ND = no detectable activity
Procedure: as §1, §2

Serratia marcescens MA = conditions: liquid LB broth, no visible growth; mean of three independent experiments in duplicates; ND = no detectable activity
Procedure: as §1, §2

Aspergillus niculans = conditions: saprophytic fungus; 10^5 spores/ml, yeast extract-peptone-dextrose broth; mean of three independent experiments in duplicates; ND = no detectable activity
Procedure: as §1, §2

[15] = system: S. aureus 08032712 (IS, DR); conditions: clinically isolated strain, drug resistance for ampicillin and benzylpenicillin; liquid LB broth; mean of three independent experiments in duplicates; ND = no detectable activity
Procedure: as §1, §2

[16] = system: Aspergillus terreus GIM3.34; conditions: saprophytic fungus; 10^5 spores/ml, yeast extract-peptone-dextrose broth; mean of three independent experiments in duplicates; ND = no detectable activity
Procedure: as §1, §2

Chaetomium globosum = conditions: saprophytic fungus; 10^5 spores/ml, yeast extract-peptone-dextrose broth; mean of three independent experiments in duplicates; ND = no detectable activity
Procedure: as §1, §2

[17] = system: S. aureus 08031002 (IS, DR); conditions: clinically isolated strain, drug resistance for ampicillin and benzylpenicillin; liquid LB broth; mean of three independent experiments in duplicates; ND = no detectable activity
Procedure: as §1, §2

[18] = system: Enterococcus faecium (IS, DR); conditions: clinically isolated strain, drug resistance for ampicillin and benzylpenicillin; liquid LB broth; mean of three independent experiments in duplicates; ND = no detectable activity
Procedure: as §1, §2

[19] = system: P.aeruginosa 08031014(IS, DR); conditions: clinically isolated strain, drug resistance for ampicillin and benzylpenicillin; liquid LB broth; mean of three independent experiments in duplicates; ND = no detectable activity
Procedure: as §1, §2

E. coli 08A866(IS, DR) = conditions: clinically isolated strain, drug resistance for ampicillin and benzylpenicillin; liquid LB broth; mean of three independent experiments in duplicates; ND = no detectable activity
Procedure: as §1, §2

[20] = system: E. coli 08040726 (IS, DR); conditions: clinically isolated strain, drug resistance for ampicillin and benzylpenicillin; liquid LB broth; mean of three independent experiments in duplicates; ND = no detectable activity
Procedure: as §1, §2

E. coli 08A852 (IS, DR) = conditions: clinically isolated strain, drug resistance for ampicillin and benzylpenicillin; liquid LB broth; mean of three independent experiments in duplicates; ND = no detectable activity
Procedure: as §1, §2

[21] = system: S. aureus 08032810 (IS, DR); conditions: clinically isolated strain, drug resistance for ampicillin and benzylpenicillin; liquid LB broth; mean of three independent experiments in duplicates; ND = no detectable activity
Procedure: as §1, §2

[22] = system: S. aureus 08031013 (IS, DR); conditions: clinically isolated strain, drug resistance for ampicillin and benzylpenicillin; liquid LB broth; mean of three independent experiments in duplicates; ND = no detectable activity
Procedure: as §1, §2

[23] = system: S. aureus 08A865 (IS, DR); conditions: clinically isolated strain, drug resistance for ampicillin and benzylpenicillin; liquid LB broth; mean of three independent experiments in duplicates; ND = no detectable activity
Procedure: as §1, §2

[24] = system: Pseudomonas aeruginosa ATCC27853; experiment: microbe, parasite or virus in culture; conditions: standard strain; liquid LB broth, no visible growth; mean of three independent experiments in duplicates; ND = no detectable activity
Procedure: as §1, §2

Bacillus subtilis = experiment: microbe, parasite or virus in culture; conditions: liquid LB broth, no visible growth; mean of three independent experiments in duplicates; ND = no detectable activity
Procedure: as §1, §2

Bacillus pumilus = experiment: microbe, parasite or virus in culture; conditions: liquid LB broth, no visible growth; mean of three independent experiments in duplicates; ND = no detectable activity
Procedure: as §1, §2

[25] = system: Escherichia coliATCC25922; experiment: microbe, parasite or virus in culture; conditions: standard strain; liquid LB broth, no visible growth; mean of three independent experiments in duplicates; ND = no detectable activity
Procedure: as §1, §2

[26] = system: Staphylococcus aureus ATCC2592; experiment: microbe, parasite or virus in culture; conditions: standard strain; liquid LB broth, no visible growth; mean of three independent experiments in duplicates; ND = no detectable activity
Procedure: as §1, §2

Bacillus cereus = experiment: microbe, parasite or virus in culture; conditions: liquid LB broth, no visible growth; mean of three independent experiments in duplicates; ND = no detectable activity
Procedure: as §1, §2

[27] = system: Acinetobacter calcoaceticus; experiment: microbe, parasite or virus in culture; conditions: liquid LB broth, no visible growth; mean of three independent experiments in duplicates; ND = no detectable activity
Procedure: as §1, §2

[28] = system: human liver tumor cell (HepG2); conditions: up to 400 µg/ml, data not shown
Procedure: (§3) Cytotoxicity and serum stability were measured according the methods described by Mygind et al. The details were provided in the Materials and Methods S1.
(§4) Hemolysis assays were undertaken using human red blood cells in liquid medium as our previous reoprts. Serial dilutions of the peptide were used, and after incubation at 37 °C for 30 min, the cells were centrifuged and the absorbance in the supernatant was measured at 540 nm. Maximum hemolysis was determined by adding 1% Triton X-100 to a sample of cells. Cytotoxicity was measured according the methods described by Mygind et al, using mouse macrophage (RAW264.7) and tumor cell (HepG2). Serum stability was checked by incubating 100 µg/ml cathelicidin-BF with 90% fresh normal human serum at 37 °C for 0, 1, 2, 3, 6, and 24 hours. Residual antimicrobial activities were measured by performing radial diffusion assays with E. coli 08A866 as described by Mygind et al.

[29] = system: mouse macrophage (RAW264.7); conditions: up to 400 µg/ml, data not shown
Procedure: as §3, §4

Sequence: KFFRKLKKSVKKRAKEFFKKPRVIGVSIPF [cathelicidin-BF]
- MIC (S. aureus ATCC25923): >400 µg/mL
- incubation time after which antimicrobial activities could not be detected [1]: 3 h
- MIC [2]: 1.2 µg/mL
- MIC [3]: 2.3 µg/mL
- MIC [4]: 4.7 µg/mL
- MIC [5]: 0.6 µg/mL
- MIC [6]: 9.4 µg/mL
- MIC (Pseudomonas luteola): 1.2 µg/mL
- MIC (E. coli): lower than 2.3 µg/ml
- MIC [7]: 0.3 µg/mL
- MIC [8]: 9.4 µg/mL
- MIC [9]: 2.3 µg/mL
- MIC [10]: 9.4 µg/mL
- MIC [11]: 4.7 µg/mL
- MIC (P. aeruginosa (IS, DR)): 2.3 µg/mL
- MIC (Serratia marcescens SA): >400 µg/mL
- MIC [12]: >100 µg/mL
- MIC [13]: 0.6 µg/mL
- MIC [14]: 75 µg/mL
- MIC (Serratia marcescens MA): >400 µg/mL
- MIC (Aspergillus niculans): 18.7 µg/mL
- MIC [15]: >100 µg/mL
- MIC [16]: 18.7 µg/mL
- MIC (Chaetomium globosum): 37.5 µg/mL
- MIC [17]: >100 µg/mL
- MIC [18]: 150 µg/mL
- MIC [19]: 18.7 µg/mL
- MIC (E. coli 08A866(IS, DR)): 0.6 µg/mL
- MIC [20]: 0.6 µg/mL
- MIC (E. coli 08A852 (IS, DR)): 1.2 µg/mL
- MIC [21]: >100 µg/mL
- MIC [22]: >100 µg/mL
- MIC [23]: >400 µg/mL
- MIC [24]: 1.2 µg/mL
- MIC (Bacillus subtilis): 9.4 µg/mL
- MIC (Bacillus pumilus): 9.4 µg/mL
- MIC [25]: 2.3 µg/mL
- MIC [26]: 4.7 µg/mL
- MIC (Bacillus cereus): 1.2 µg/mL
- MIC [27]: 2.3 µg/mL
- cytotoxicity [28]: neither cytotoxic
- cytotoxicity ([28]; listed as Cathelicidin-BF): No hemolytic and cytotoxic activity
- cytotoxicity [29]: neither cytotoxic
- cytotoxicity ([29]; listed as Cathelicidin-BF): No hemolytic and cytotoxic activity
